Each cell line was assayed with c1ccc2c(CCNc3ccc(Nc4ccncc4)cc3)c[nH]c2c1 [Serdemetan] + CC1(C)CCC(c2ccc(Cl)cc2)=C(CN2CCN(c3ccc(C(=O)NS(=O)(=O)c4ccc(N[C@H](CCN5CCOCC5)CSc5ccccc5)c(S(=O)(=O)C(F)(F)F)c4)cc3)CC2)C1 [Navitoclax] (partner 0.5 µM) (assay: relative viability (nuclei count vs DMSO), 5 days (fraction); higher = more cells survive). Conditions: first compound 0.04 µM.
Summary of the method: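 For relative viability, nuclei counts in treated wells were divided by those in vehicle wells. Lung cancer cell lines had been pin-tool dosed in 1536-well plates the day after seeding and cultured for 5 days, then fixed and stained in one step (final 0.05% Triton X-100, 1% formaldehyde, 1 ug/ml Hoechst) and imaged at 4×. Doses were one drug alone or a fixed anchor-drug dose plus five library-drug doses (not always all listed) in √10 steps, and values are duplicate-plate medians.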

Cell Line | relative viability
COR-L23 | 1.03
COR-L 105 | 0.708
LOU-NH91 | 0.696
NCI-H2170 | 0.591
NCI-H2405 | 0.813
HOP-62 | 1.08
LU99A | 0.803
BEN | 0.0749
HARA | 1.12
HCC-78 | 0.758
NCI-H322M | 1.05
LCLC-97TM1 | 0.472
NCI-H2009 | 1.11
A-427 | 0.967
NCI-H441 | 0.424
NCI-H1734 | 0.68

Cell Line | relative viability
NCI-H460 | 1.03
NCI-H2347 | 0.737
SK-LU-1 | 0.809
NCI-H1395 | 0.976
201T | 1.18
NCI-H1915 | 0.815
HCC-827 | 1.02
LXF-289 | 0.931
NCI-H23 | 0.887
NCI-H647 | 1.06
CAL-12T | 1.3
NCI-H1651 | 0.826
EPLC-272H | 1.11
NCI-H2228 | 0.878
NCI-H1355 | 1.01
NCI-H3122 | 0.975

Same assay, conditions: first compound 0.1265 µM

Cell Line | relative viability
COR-L23 | 1
COR-L 105 | 0.871
LOU-NH91 | 0.74
ChaGo-K-1 | 1.15
NCI-H2170 | 0.705
NCI-H2405 | 1.03
HOP-62 | 0.942
LU99A | 0.842
BEN | 0.0626
HARA | 1.11
HCC-78 | 0.898
NCI-H322M | 1.21
LCLC-97TM1 | 0.32
NCI-H2009 | 1.12
A-427 | 0.971
NCI-H441 | 0.654

Cell Line | relative viability
NCI-H460 | 1.04
NCI-H2347 | 0.779
SK-LU-1 | 0.971
NCI-H1395 | 1.07
201T | 1.22
NCI-H1915 | 0.759
HCC-827 | 0.941
LXF-289 | 0.927
NCI-H23 | 0.848
NCI-H647 | 1.14
CAL-12T | 1.42
NCI-H1651 | 0.808
EPLC-272H | 1.15
NCI-H2228 | 0.782
NCI-H1355 | 0.863
NCI-H3122 | 0.951

Same assay, conditions: first compound 0.4 µM

Cell Line | relative viability
COR-L23 | 1.07
COR-L 105 | 0.596
ChaGo-K-1 | 0.925
NCI-H2170 | 0.52
NCI-H2405 | 1.01
HOP-62 | 1.05
LU99A | 0.712
BEN | 0.0845
HARA | 1.09
HCC-78 | 0.774
NCI-H322M | 1.12
LCLC-97TM1 | 0.278
NCI-H2009 | 1.17
A-427 | 0.882
NCI-H441 | 0.87
NCI-H1734 | 0.202

Cell Line | relative viability
NCI-H460 | 1.13
NCI-H2347 | 0.712
SK-LU-1 | 0.853
NCI-H1395 | 1.08
201T | 1.2
NCI-H1915 | 0.78
LXF-289 | 0.884
NCI-H23 | 0.996
NCI-H647 | 1.06
CAL-12T | 1.26
NCI-H1651 | 0.557
EPLC-272H | 0.822
NCI-H2228 | 0.86
NCI-H1355 | 0.944
NCI-H3122 | 1

Same assay, conditions: first compound 1.265 µM

Cell Line | relative viability
COR-L23 | 0.939
COR-L 105 | 0.771
LOU-NH91 | 0.534
ChaGo-K-1 | 0.681
NCI-H2170 | 0.554
NCI-H2405 | 0.921
HOP-62 | 0.944
LU99A | 0.251
BEN | 0.0724
HCC-78 | 0.756
NCI-H322M | 1.43
LCLC-97TM1 | 0.364
NCI-H2009 | 1.06
A-427 | 0.724
NCI-H441 | 0.87
NCI-H1734 | 0.108
NCI-H460 | 0.303
NCI-H2347 | 0.624
SK-LU-1 | 0.705
NCI-H1395 | 0.923
201T | 1.14
NCI-H1915 | 0.372
HCC-827 | 0.787
LXF-289 | 0.759
NCI-H23 | 0.809
NCI-H647 | 0.844
NCI-H1651 | 0.256
EPLC-272H | 0.632
NCI-H2228 | 0.34
NCI-H1355 | 0.915

Same assay, conditions: first compound 4 µM

Cell Line | relative viability
COR-L23 | 0.81
COR-L 105 | 0.722
LOU-NH91 | 0.581
ChaGo-K-1 | 0.899
NCI-H2170 | 0.601
NCI-H2405 | 0.721
HOP-62 | 0.962
LU99A | 0.26
BEN | 0.0676
HARA | 0.757
HCC-78 | 0.384
NCI-H322M | 1.06
LCLC-97TM1 | 0.377
NCI-H2009 | 1.01
A-427 | 0.615
NCI-H441 | 0.317
NCI-H1734 | 0.188

Cell Line | relative viability
NCI-H460 | 0.0983
NCI-H2347 | 0.374
SK-LU-1 | 0.639
NCI-H1395 | 0.815
201T | 1.13
NCI-H1915 | 0.687
HCC-827 | 0.753
LXF-289 | 0.749
NCI-H23 | 0.623
NCI-H647 | 0.83
CAL-12T | 1.19
NCI-H1651 | 0.226
EPLC-272H | 0.691
NCI-H2228 | 0.199
NCI-H1355 | 0.78
NCI-H3122 | 1.04

— the supplement of paper PMC10307832
